Measured values: article PMC7662321, “Andrographolide and Its 14-Aryloxy Analogues Inhibit Zika and Dengue Virus Infection” (Molecules, 2020)

Legend:
Ran = assay: 2D-PAGE proteomic analysis of treated A549 cells, Ran spot; format: cell-based, human; details: A549, 25 µM, 24 h
Experimental: (§1) A549 cells were therefore treated with either vehicle (0.025% DMSO), or with 25 μM of andrographolide or ZAD-1, and at 24 h post-treatment, proteins were prepared and subjected to two-dimension polyacrylamide gel electrophoresis (2D-PAGE). The experiment was undertaken independently in triplicate and representative gels are shown Figure 5, with all replicates being shown in Supplementary Figure S12. […] All of these protein spots were cut from the gels and then subjected to in-gel tryptic digestion followed by mass spectrometry. MASCOT (Matrix Science Inc., Boston, MA, USA) search of the resultant masses identified 4 proteins (Table 3), namely heat shock protein 70 kDa 1A (HSPA1A), phosphoglycerate kinase 1 (PGK1), transketolase (TKT) and nuclear transport protein of GTP-binding nuclear protein Ran (Ran).
(§2) 2D-PAGE and mass spectroscopic identification of differentially expressed spots was undertaken essentially as previously described. […] Image data were analyzed using Image Master™ 2D Platinum software version 7.0 (GenBio, Geneva, Switzerland). Each spot was evaluated on intensity, volume and area. […] After tryptic in-gel digestion, peptide masses were determined by LC-MS/MS using SYNAPT high definition MS (HDMS) (Waters Corp., Milford, MA, USA).

[1] = MTT cytotoxicity assay in BHK-21 cells; format: cell-based; details: hamster, BHK-21 cells (baby hamster kidney), 24 h post-treatment
Experimental: (§3) Cytotoxicity of each compound towards cells for four selected cell lines in the range of 1 to 500 µM was evaluated using the MTT (3-(4,5-dimethylthiazol-2-yl)-2,5-diphenyltetrazolium bromide) assay at 24 h post-treatment, in parallel with control and vehicle-treated cells (0.1% dimethyl sulfoxide (DMSO)). The 50% cytotoxic concentration (CC50) values calculated from the dose-response curve (Supplementary Figures S2–S5) are shown in Table 1. Overall, a range of cytotoxicities were seen from the four compounds across the […]. The most cytotoxic combination was ZAD-1 and BHK-21 cells, while the least cytotoxic combination was andrographolide and BHK-21 cells (Table 1).
(§4) A549 cells were cultured in ninety-six-well tissue culture plates under standard conditions until the cells reached 90% confluence. The cell culture medium was removed and then cells were incubated with various concentrations of andrographolide (1–100 μM) diluted in complete medium with FBS prior to being cultured for 24 h under standard conditions before analysis using either the Vybrant MTT Cell proliferation assay kit (V13154, Invitrogen) or the alamarBlue (Thermo Fischer Scientific, Waltham, MA, USA) assay kit according to the manufacturers recommendations. Values were determined from 8 (MTT assay) or 3 (alamarBlue) independent replicates. Negative controls (only media and media with 0.1% DMSO) and positive controls (5% DMSO) were included. To determine cell number, cell cultures were trypsinized by the addition of 0.25% Trypsin/0.1% ethylelediaminetetraacetic acid (EDTA) for 3 min and then cell suspensions were diluted with 0.4% trypan blue solution. Cells were counted using a hemocytometer. Cell morphology was additionally observed under an inverted microscope after 24 h treatment with various concentrations of each compound.
(§5) Figu re S2. Cytotoxicity of ZAD -1 (A), ZA D-2 (B), ZA D-3 (C), and andro grapholide (D) to BHK- 21 (baby hamster kidney) cells. BHK- 21 cells were incubated with various concentrations of each compound for 24 hrs followed by MTT cell viability assay. The experiment was undertaken independently in 4 replicates.
(§6) DMSO at the same concentrations was used as a control. 10% ethanol, PBS, and milli- Q water were used as a positive control of cell death. The bars show mean ± SD. […]

PGK1 = assay: 2D-PAGE proteomic analysis of treated A549 cells, PGK1 spot; format: cell-based, human; details: A549, 25 µM, 24 h
Experimental: as §1, §2

[2] = MTT cytotoxicity assay in A549 cells; format: cell-based; details: human, A549 cells (human lung carcinoma), 24 h post-treatment
Experimental: as §3, §4
as §5, with “S4.” for “S2.”, “A549 (human lung carcinoma)” for “BHK- 21 (baby hamster kidney)”, “A549” for “BHK- 21”
as §6

Structure (SMILES) | Intensity Level, spot 4 Ran (Ran) | CC50 at 24 h [1] | Intensity Level, spot 3 PGK1 (PGK1) | CC50 at 24 h [2]
C=C1CC[C@@H]2[C@]3(C)COC(C)(C)O[C@@H]3CC[C@@]2(C)[C@@H]1C/C=C1/C(=O)OC[C@@H]1Oc1c(Cl)cc(Cl)c2ccc(C)nc12 [ZAD-1] | 2096.79 | 136 ± 6 µM | 2509.31 | 273 ± 22 µM
C=C1CC[C@@H]2[C@](C)(CO)[C@H](O)CC[C@@]2(C)[C@@H]1C/C=C1/C(=O)OC[C@H]1O [Andrographolide] | 698.483 | 600 ± 75 µM | 1053.31 | 211 ± 32 µM
